In US10556926B2, “Synthetic artificial peptides with antimicrobial effect” (priority 2014, dated 2020):
Like-named read-outs stand apart in the source and are kept apart here. No end group written: not given here.

Tests used:
[1] = tested on: human histiocytic lymphoma cell line U937; assay: Long-term growth inhibition, minimum toxic concentration (MTC)
Procedure: The cytotoxic potential of the antimicrobial peptides was determined by way of example by reference to the human histiocytic lymphoma cell line U937 (DSMZ). The influence of the peptides on the permeability of the cell membrane and their longer-term growth-inhibiting effect was investigated. 15 ml of RPMI 1640 medium with 2 mM glutamine and 10% FCS (Biochrom, Berlin, Germany) were inoculated with 1·10^5 cells per ml and cultivated for three days at 37° in T75 cell culture bottles (TPP, Trasadingen, Switzerland) with constant gassing with 5% CO2 in a climatically controlled chamber. The medium was admixed with 10 U/ml penicillin and […] streptomycin (both AppliChem, Darmstadt, Germany) to avoid bacterial contaminations, with no further antibiotics being added during the subsequent recultivation. Before each experiment, the cells were washed by centrifugation at 100 g for five minutes and subsequent resuspension in RPMI 1640 medium with 2 mM glutamine and 10% FCS in each case two times and adjusted to a concentration of 1·10^5 cells per ml. Finally, in each case 100 μl of the U937 cells were transferred to the reaction chambers of a sterile 96-well polypropylene microtiter plate and admixed with in each case 100 μl of a prediluted antimicrobial peptide in RPMI 1640 medium without antibiotic addition, such that end concentrations of in each case 5·10^4 cells per ml at peptide concentrations between 0.25 μM and 64 μM were present. The negative control used was samples without antimicrobial peptide, while Triton X-100 (AppliChem) was used in an end concentration of 5% as positive control for the permeabilization. The samples were cultivated for two hours at 37° C. and with continuous gassing with 5% CO2 in a climatically controlled chamber. Then, in each case 100 μl of each sample were removed and transferred to new sterile microtiter plates for determining the direct membrane damage. The remaining 100 μl of the samples were cultivated for at least four further days.
For this purpose, 10 μl of lysing solution were added to in each case 100 μl of cell suspension and incubated for 60 minutes at 37° C. Then, the cell culture supernatants were investigated as described above. The lowest peptide concentration at which complete suppression of the cell growth was established after four days was stipulated as the minimum toxic concentration (MTC).

[2] = tested on: human histiocytic lymphoma cell line U937; assay: Cytotoxicity, direct membrane damage (CytoTox 96), LD50; format: cell-based; conditions: U937, two hours at 37° C., 0.25-64 μM
Procedure: The direct membrane damage was investigated with the help of the CytoTox 96 Non-Radioactive Cytotoxicity Assay (Promega, Mannheim, Germany). For this purpose, the cells were sedimented at 100 g for ten minutes at 4° C., and 50 μl of the resulting culture supernatant were added to 50 μl of the CytoTox substrate mix. After an incubation time of 30 minutes in the dark at room temperature, 50 μl of the CytoTox stopping solution were added to the sample and the absorption was measured at 490 nm. To determine the LD50 value, the measurement value of the negative control was deducted from the absorption values and divided by the measurement value of the permeabilization control. The calculated values were plotted graphically against the peptide concentration and fitted using the Origin pro 8.1 G Software according to a sigmoidal model and the LD50 values were ascertained from this. The calculation was carried out analogously to example 5 by reference to the solution of equation 5.1 for the case y=50, where y in this case corresponds to the relative cytotoxicity in percent and x corresponds to the peptide concentration in μM. Representative graphical evaluations of LD50 values are shown in FIG. 6 by reference to the measurement results for the reference peptides BMAP-27, protamine and KL-helix, and also the peptide O1 according to the invention.

[3] = tested on: E. coli DH5α
Procedure: (§1) The minimum inhibitory concentration (MIC) of the peptides was carried out by way of example against gram(−) E. coli DH5α (and gram(+) Staphylococcus xylosus (both Deutsche Sammlung von Mikroorganismen and Zellkulturen, DSMZ) in a standardized microdilution method according to the general guidelines of the CLSI (Clinical and Laboratory Standards Institute 2006) and EUCAST (European Committee for Antimicrobial Susceptibility Testing of the European Society of Clinical Microbiology and Infectious Diseases 2003) with slight adaptations to the investigation of cationic antimicrobial peptides (Wiegand et al. 2008). The bacteria cells were cultivated in Mueller-Hinton-Boullion (MHB) to an optical density of 0.4 to 0.6 at 600 nm wavelength, corresponding to about 4·10^8 bacteria per ml. Then, the bacteria cultures were diluted to a bacteria concentration of about 1·10^5 bacteria per ml in sterile MHB. Using the peptides, series of 2-fold dilutions starting at 128 μM to the smallest dilution of 0.5 μM in MHB were prepared. The peptide dilutions were mixed with the dilute bacteria cultures in a […] in the chambers of a 96-well polypropylene microtiter plate (Starlab, Hamburg, Germany), so that the peptides were present in an end concentration between 64 μM and 0.25 μM at a bacteria concentration of 5·10^4 bacteria/ml. Sterile MHB served as negative control, and the positive control used as the corresponding bacteria concentration in MHB without the addition of peptide. The microtiter plates were incubated for 18 hours at 37° C. with shaking at 120 rpm in a climatically controlled chamber. After the incubation, the bacteria concentration was determined by renewed absorption measurement at a wavelength of 600 nm.

[4] = tested on: Staphylococcus xylosus
Procedure: as §1

[5] = MHB, 18 hours at 37° C., mean of four test series

Substance	Toxicity MTC (minimum toxic concentration) [1] [µM]	Toxicity LD50 [2] [µM]	MIC E. coli ([3]; DH5α, 18 h) [µM]	MIC S. xylosus ([4]; 18 h) [µM]	MIC E. coli [3, 5] [µM]	MIC S. xylosus [4, 5] [µM]
GSGILILIKRK [M5]	>64	>64	>64	>64	–	–
ILIKRK [N7, ILIKRK]	>64	>64	>64	>64	–	–
ILILIKRK [N5]	>64	>64	64	64	–	–
ILILILILKRK [M3]	>64	>64	>64	>64	–	–
KKKFFFFFKKK [S8]	–	>64	16	4	–	–
KKKIIIIIIKKK-NH2 [O1′]	–	–	–	–	4	0.25
KKKIIIIIKKK [S2]	–	>64	8	0.5	–	–
KKKKKIIIIIDDDDD [D1]	>64	>64	>64	>64	–	–
KKKKKIIIIIDDDDK [D8]	>64	>64	>64	>64	–	–
KKKKKIIIIIDDDKK [D7]	>64	>64	>64	>64	–	–
KKKKKIIIIIDKKKK [D6]	>64	>64	32	16	–	–
KKKKKIIIIIKDDDD [D2]	>64	>64	>64	>64	–	–
KKKKKIIIIIKKKDD [D3]	>64	>64	>64	32	–	–
KKKKKIIIIIKKKKD [D4]	>64	>64	32	16	–	–
KKKKKIIIIIKKKKK [D5]	>64	>64	16	2	–	–
KKKLLLLLKKK [S4]	–	>64	16	8	–	–
KKKVVVVVKKK [S6]	–	>64	64	8	–	–
KLILKRKRKRILIK [A4]	>64	>64	32	16	–	–
KRKGKRK [H7, KRKGKRK]	>64	>64	>64	64	–	–
KRKGSGKRK [H8]	>64	>64	>64	>64	–	–
KRKIKRK [H5, KRKIKRK]	>64	>64	>64	>64	–	–

Substance	Toxicity MTC (minimum toxic concentration) [1] [µM]	Toxicity LD50 [2] [µM]	MIC E. coli ([3]; DH5α, 18 h) [µM]	MIC S. xylosus ([4]; 18 h) [µM]	MIC E. coli [3, 5] [µM]	MIC S. xylosus [4, 5] [µM]
KRKIL [C8, KRKIL]	>64	>64	>64	>64	–	–
KRKILI [C7, KRKILI]	>64	>64	>64	>64	–	–
KRKILIKRK [H3]	>64	>64	>64	64	–	–
KRKILIL [C6, KRKILIL]	>64	>64	>64	>64	–	–
KRKILILI [C5]	>64	>64	>64	>64	–	–
KRKILILIGSG [M4]	>64	>64	>64	>64	–	–
KRKILILIK [C4]	>64	>64	32	8	–	–
KRKILILIKR [C3]	>64	>64	16	8	–	–
KRKILILIKRK [M1]	>64	>64	8	2	–	–
KRKILILIKRKR [C2]	>64	>64	16	2	–	–
KRKILILIKRKRK [C1]	>64	61	16	1	–	–
KRKILILILIKRK [H1]	>64	>64	8	1	–	–
KRKILILILIL [M2]	>64	>64	>64	>64	–	–
KRKKRK [H6, KRKKRK]	>64	>64	>64	16	–	–
KRKLIKRK [H4]	>64	>64	>64	>64	–	–
KRKLILIKRK [H2]	>64	>64	>64	16	–	–
LKLLKKLLKKLLKLL [KL-helix]	8.0	–	4	2	–	–
RRRFFFFFRRR [S7]	–	>64	4	0.5	–	–
RRRIIIIIRRR [S1]	–	>64	8	2	–	–
RRRLLLLLRRR [S3]	–	>64	8	1	–	–
